Results on seven compounds are retold here after article PMC10889512, “Pyrimidine Schiff Bases: Synthesis, Structural Characterization and Recent Studies on Biological Activities” (International Journal of Molecular Sciences, 2024).

The structures appear in SMILES notation. ≈ marks a conversion by molar mass, not a printed value. Like-named read-outs stand apart in the source and are kept apart here.

In general, melting point refers to the temperature of the solid-liquid transition. A word on the IC50: it is the concentration needed to halve the response being measured. A word on the MBC: it is the lowest tested concentration that kills the bacteria rather than only halting them. As a reminder, the MIC is the smallest concentration in the dilution series that meets the test's criterion for growth inhibition.

Data set [1] has as its system AGS cell line. Set-up: method as in Suttie et al. 87. The following applies: ref Suttie et al. 87; cited from earlier work.
Data set [2] concerns A172 cell line. Set-up: method as in PMID 30405885. The following applies: A172, 72 h, 200 µM; cited from earlier work.
The test system of data set [3] is A. baumannii 19606. As to the kind of experiment: Antimicrobial activity assay, microdilution. In kind it is cell-based, Acinetobacter baumannii. Particulars: concentration range from 0.5 µg/mL to 256 µg/mL. As for the experimental part: (§1) In vitro antimicrobial and antifungal activity was screened using microdilution and modified Richard’s medium. The assay was performed for compounds 4a, 4b, 4c, and 4d with seven reference microbial strains from ATTC (E. coli 25922, S. aureus 43300, K. pneumoniae 700603, A. baumannii 19606, P. aeruginosa 27853, E. faecalis 29212, and C. albicans 10231).
(§2) Seven reference strains from the ATCC collection (Escherichia coli 25922, Staphylococcus aureus 43300, Klebsiella pneumoniae 13883, Acinetobacter baumannii 19606, Pseudomonas aeruginosa 27853, Enterococcus faecalis 29212, and Candida albicans 10231) were used. The assay was performed according to a modified version of Richard et al.’s protocol and ISO standards 20776-1:2019 and 16256:2021 [78, 79]. Microdilution with spectrophotometric measurement was used to calculate MIC50 (minimal inhibitory concentration which decreased the microorganisms’ viability to 50%) values. Briefly, compounds were prepared 100× concentrated in DMSO, and during the whole experiment, they were diluted to 1× with TSB. Serial dilutions of tested compounds were made directly on plates at a concentration range of 0.5 to 256 µg/mL. Microorganisms were incubated for 24 h at 37 °C (bacteria) or 25 °C (yeast) on Petri dishes with TSA. The bacteria/yeast suspensions were prepared at a density 5 × 10^5 CFU/mL (for bacteria) or 0.5–2.5 × 10^5 CFU/mL (for yeast) with TSB. Also, appropriate controls were contained in the experiment: the positive control consisted of a specific strain in TSB, and the negative control was TSB alone. To ensure that used strains were not modified and were still responding to antibacterial/antifungal compounds established by EUCAST, additional tests were conducted with levofloxacin, gentamicin, and amphotericin B. Microplates were incubated on a shaker for 24 h at 37 ± 1 °C or 25 ± 1 °C for the bacteria and yeast strains, respectively. After the incubation, spectrophotometric measurement was performed at 580 nm. MIC50 was calculated by comparing the results obtained for experimental sets with positive controls. Next, 50 µL aliquots of 1% (m/v) TTC solution were added to each well. The plates were incubated on the shaker for 24 h at 37/25 °C. In living microbial cells, colourless TTC is converted into red formazan crystals, which allows for visual observation and MBC/MFC (minimal bactericidal/fungicidal concentration) value assessment.
On the technique in general: In broth dilution the organism is exposed to a series of concentrations in liquid medium.

The test system of data set [4] is E. faecalis 29212. As to the kind of experiment: Antimicrobial activity assay, microdilution. In kind it is cell-based, Enterococcus faecalis. Particulars: concentration range from 0.5 µg/mL to 256 µg/mL. As for the experimental part:
as §1, §2

The subject of data set [5] is E. coli 25922. The data set can be described thus: Antimicrobial activity assay, microdilution. Format: cell-based, Escherichia coli. The following applies: concentration range from 0.5 µg/mL to 256 µg/mL. The method, then: as §1, §2
Data set [6] relates to K. pneumoniae 700603. The data set can be described thus: Antimicrobial activity assay, microdilution. Format: cell-based, Klebsiella pneumoniae. The following applies: concentration range from 0.5 µg/mL to 256 µg/mL. The method, then: as §1, §2
Data set [7] has as its system RPTEC cell line. The data set can be described thus: Neutral red uptake assay on RPTEC cell line. In kind it is cell-based. Particulars: 100 µM, 72 h. The method, then:
In order to evaluate the cytotoxic properties of the tested compounds (4a–d), a neutral red uptake (NR) assay was performed on the RPTEC cell line. Four concentrations were used: 10, 100, 250, and 500 µM of each compound. The compound 4a was rejected from further investigation on cancer cell lines due to its high cytotoxicity (53 and 67% at 100 and 250 µM, respectively). Furthermore, at a concentration of 500 µM, the compound 4a crystallized, which influenced the obtained results by attenuating cytotoxic activity. Cell lines were plated in 96-well plates at a density of 1 × 10^4 cells/well. After 24 h incubation, which allowed the cells to attach and start to proliferate, the culture media were replaced with 4a–d dissolved in the appropriate medium at concentrations of 1, 10, 50, 100, 150 and 200 µM. […] Negative (1% DMSO in medium) and positive (1 µM staurosporine) controls were also included. Plates were incubated at 37 °C for 24, 48, and 72 h before the neutral red uptake assay. […] A 100 µL quantity of destain solution consisting of 50% ethanol, 1% glacial acetic acid, and deionized water was added to each well. […] Absorption was measured at 540 nm excitation. The cells’ viability was calculated by comparing results from experimental sets with negative controls according to the formula: % viability=ODtest substance−ODblind/ODnegative control−ODblind×100

The subject of data set [8] is S. aureus 43300. As to the kind of experiment: Antimicrobial activity assay, microdilution. In kind it is cell-based, Staphylococcus aureus. The following applies: concentration range from 0.5 µg/mL to 256 µg/mL. The method, then: as §1, §2
In data set [9] the test system is P. aeruginosa 27853. The data set can be described thus: Antimicrobial activity assay, microdilution. In kind it is cell-based, Pseudomonas aeruginosa. The following applies: concentration range from 0.5 µg/mL to 256 µg/mL. As for the experimental part:
as §1, §2

Data set [10] relates to C. albicans 10231. The data set can be described thus: Antifungal activity assay, microdilution. In kind it is cell-based, Candida albicans. The following applies: concentration range from 0.5 µg/mL to 256 µg/mL. The method, then: as §1, §2
Data set [11] relates to HepG2. As to the kind of experiment: Neutral red uptake assay on HepG2. The following applies: Homo sapiens; HepG2, 72 h treatment. Format: cell-based. The method, then: (§3) Based on the results obtained for the RPTEC cell line, the following concentrations of 4b–d were chosen to be applied to neoplastic cell lines: 0.1, 1, 10, 25, 50, and 100 µM. A172, AGS, CaCo-2, HeLa, and HepG2 cancer cell lines were used to perform a neutral red uptake assay. The obtained results were compared with a negative control (cell lines incubated without tested compounds), and half-maximal inhibitory concentration (IC50) values were calculated. Cell lines were plated in 96-well plates at a density of 1 × 10^4 cells/well. After 24 h incubation, which allowed the cells to attach and start to proliferate, the culture media were replaced with 4a–d dissolved in the appropriate medium at concentrations of 1, 10, 50, 100, 150 and 200 µM. […] Negative (1% DMSO in medium) and positive (1 µM staurosporine) controls were also included. Plates were incubated at 37 °C for 24, 48, and 72 h before the neutral red uptake assay. The neutral red uptake assay was performed as described by Repetto et al.. Briefly, the medium from all wells was discarded, the attached cells were washed with 100 µL PBS, and then 100 µL of neutral red working solution in medium (40 µg/mL) was added to each well. The neutral red solution was incubated overnight in the same conditions as the cells and centrifuged before being added to the cells. The plates were incubated for at least 2 h at 37 °C, 5% CO2, in a humidified atmosphere. Next, the neutral red medium was removed, and the cells were washed with 100 µL PBS. A 100 µL quantity of destain solution consisting of 50% ethanol, 1% glacial acetic acid, and deionized water was added to each well. Plates were incubated for 30 min with constant shaking on a horizontal shaker at 37 °C. Absorption was measured at 540 nm excitation. The cells’ viability was calculated by comparing results from experimental sets with negative controls according to the formula: % viability=ODtest substance−ODblind/ODnegative control−ODblind×100

Data set [12] deals with CaCo-2. As to the kind of experiment: Neutral red uptake assay on CaCo-2. In kind it is cell-based. The following applies: Homo sapiens; CaCo-2, 72 h treatment. The method, then:
as §3

In data set [13] the test system is HeLa. As to the kind of experiment: Neutral red uptake assay on HeLa. In kind it is cell-based. The following applies: Homo sapiens, 72 h treatment. As for the experimental part: as §3
For data set [14], the system named is AGS. As to the kind of experiment: Neutral red uptake assay on AGS. Format: cell-based, human. The following applies: 72 h treatment. As for the experimental part: as §3
Data set [15] has as its system A172. The data set can be described thus: Neutral red uptake assay on A172. Format: cell-based, human. Particulars: Homo sapiens, A 172, 72 h, A172, 72 h treatment. As for the experimental part:
as §3

In data set [16] the test system is A172. Set-up: method as in PMID 33921108. The following applies: cited from earlier work.
In data set [17] the test system is Enterococcus faecalis. Set-up: method as in PMID 33921108. Particulars: cited from earlier work.

Turning to `O=c1[nH]cc(F)c(=O)[nH]1` [5-fluorouracil], the LD50 in data set [1] was 153.7 µM.

As to `Cn1nnc2c(C(N)=O)ncn2c1=O` [TMZ, temozolomide], the cell viability entry in data set [2] is on record as “below 70%”.

Consider `Cc1nc(-c2ccccc2)nc(Nc2ccc(F)cc2)c1C=Nc1ccc(F)cc1` [compound 4a, N-(4-fluorophenyl)-5-{[(4-fluorophenyl)imino]methyl}-6-methyl-2-phenylpyrimidin-4-amine], for which the melting point came out at 178 °C. Moreover, the “MIC and MBC/MFC activity” value in [3] was “Neither MIC nor MBC/MFC activity was observed”. Besides, the “MIC and MBC/MFC activity” value in [4] is listed as “Neither MIC nor MBC/MFC activity was observed”. Moreover, the “MIC and MBC/MFC activity” value in data set [5] is on record as “Neither MIC nor MBC/MFC activity was observed”. In addition, in data set [6], the “MIC and MBC/MFC activity” value is reported as “Neither MIC nor MBC/MFC activity was observed”. The cytotoxicity in data set [7] turned out to be 53%. The “MIC and MBC/MFC activity” value in [8] is reported as “Neither MIC nor MBC/MFC activity was observed”. Further, the “MIC and MBC/MFC activity” value in [9] is “Neither MIC nor MBC/MFC activity was observed”. Moreover, the “MIC and MBC/MFC activity” value in data set [10] is recorded as “Neither MIC nor MBC/MFC activity was observed”.

For `COc1ccccc1N=Cc1c(C)nc(-c2ccccc2)nc1Nc1ccc(F)cc1` [compound 4c, N-(4-fluorophenyl)-6-methyl-2-phenyl-5-{[(2-methoxyphenyl)imino]methyl}pyrimidin-4-amine], the melting point is 167 to 169 °C. In addition, in [11], the IC50 was above 100 µM. In [3], the “MIC and MBC/MFC activity” value is listed as “Neither MIC nor MBC/MFC activity was observed”. For the same compound, the IC50 in [12] is above 100 µM. Also, the “MIC and MBC/MFC activity” value in data set [4] is “Neither MIC nor MBC/MFC activity was observed”. Moreover, the “MIC and MBC/MFC activity” value in data set [5] is listed as “Neither MIC nor MBC/MFC activity was observed”. In addition, the IC50 in [13] was above 100 µM. The compound further showed an IC50 in data set [14] (Homo sapiens, 72 h) above 100 µM. In data set [15], this compound had an IC50 above 100 µM. Moreover, the “MIC and MBC/MFC activity” value in data set [6] is reported as “Neither MIC nor MBC/MFC activity was observed”. Further, the “MIC and MBC/MFC activity” value in data set [8] is reported as “Neither MIC nor MBC/MFC activity was observed”. Moreover, the “MIC and MBC/MFC activity” value in [9] is reported as “Neither MIC nor MBC/MFC activity was observed”. In addition, in [10], the “MIC and MBC/MFC activity” value was “Neither MIC nor MBC/MFC activity was observed”.

`Cc1nc(-c2ccccc2)nc(Nc2ccc(F)cc2)c1C=Nc1ccc(Cl)c(C(F)(F)F)c1` [compound 4d, 5-[{[4-chloro-3-(trifluoromethyl)phenyl]imino}methyl]-N-(4-fluorophenyl)-6-methyl-2-phenylpyrimidin-4-amine] displayed a melting point of 210 °C. Moreover, in data set [11], the half-inhibitory concentration (IC50) is above 100 µM. The “MIC and MBC/MFC activity” value in data set [3] is reported as “Neither MIC nor MBC/MFC activity was observed”. This compound also yielded an IC50 in [12] above 100 µM. Moreover, the “MIC and MBC/MFC activity” value in [4] is “Neither MIC nor MBC/MFC activity was observed”. In data set [5], the “MIC and MBC/MFC activity” value is listed as “Neither MIC nor MBC/MFC activity was observed”. The IC50 in [13] is above 100 µM. In data set [14], the half-inhibitory concentration (IC50) is above 100 µM. It took 190 µM to reach half-maximal inhibition in data set [14] (Homo sapiens, 72 h) (IC50). This compound also gave an IC50 in data set [15] above 100 µM. The “MIC and MBC/MFC activity” value in data set [6] is listed as “Neither MIC nor MBC/MFC activity was observed”. In [8], the “MIC and MBC/MFC activity” value was “Neither MIC nor MBC/MFC activity was observed”. Moreover, the “MIC and MBC/MFC activity” value in [9] is on record as “Neither MIC nor MBC/MFC activity was observed”. Besides, the “MIC and MBC/MFC activity” value in data set [10] is reported as “Neither MIC nor MBC/MFC activity was observed”.

With `CCOc1ccc(N=Cc2c(C)nc(-c3ccccc3)nc2Nc2ccc(F)cc2)cc1` [compound III, 5-[(4-ethoxyphenyl)imino]methyl-N-(4-fluorophenyl)-6-methyl-2-phenylpyrimidin-4-amine], in [16], the IC50 is 526 µM. In addition, in data set [17], the minimal bactericidal concentration (MBC) is 32 µg/mL (≈ 75 µM) and the MIC was 16 µg/mL (≈ 37.5 µM).

As to `COc1cccc2c1C(=O)c1c(O)c3c(c(O)c1C2=O)C[C@@](O)(C(=O)CO)C[C@@H]3O[C@H]1C[C@H](N)[C@@H](O)[C@H](C)O1` [epirubicin], in [1], the LD50 was 0.23 µM.
